Key:
[1] = test system: EA (enzyme acceptor fragment of β-galactosidase); test: Enzyme Fragment Complementation (EFC) assay; type: biochemical; details: 50 nM ED, EA plus chemiluminescence substrate, 60 min room temperature; compared to linear ED (cysteines capped with maleimide)
Method: For determination of EFC activity, 10 μL of 50 nM cyclic ED-Lactamase substrate (cED47mer) or 10 μl linear ED (Cysteines capped with maleimide, DiscoveRx, Fremont, Calif.) 50 nM was added to 20 μl EDDB Enzyme donor dilution buffer (MES 10 mM, NaCl 200 mM, EGTA 10 mM, BSA 2 mg/ml, NaN3 14.6 mM) (DiscoveRx, Fremont, Calif.) in a 384-well white plate.

TEM-1 lactamase = TEM-1 lactamase (Escherichia coli, UniProt P62593); details: cED47mer 50 nM, CHOK1 cell lysates, 3-hour incubation with varying TEM1 lactamase (picomole), read 1 hr after EA and substrate
Method: The assay comprises two basic steps: • 1) hydrolysis of the lactam in the cyclic ED lactamase substrate (cED 47mer) by the lactamase to yield a linear ED; and • 2) detection of the linear ED by EA and β-galactosidase chemiluminescent substrate. The lactamase reaction step comprises 101 of cell lysate (<4000 CHOK1 cells, DiscoveRx, Fremont, Calif.) or cell lysis buffer (part # 30-175, DiscoveRx, Fremont, Calif.), 10 μl cED47mer substrate at 50 nM and 10 μl of lactamase (TEM-1, Invitrogen Part # PV3575) at varying concentrations. The reaction mixture is then incubated at ambient temperature for various time intervals. The detection step comprises addition of 10 μL1 EA (1-2 μM, DiscoveRx, Fremont, Calif.) and 10 μl chemiluminescent substrate reagent (Applied Biosystems, Foster City, Calif.).
The chemiluminescence was read 1 hr after addition of EA and chemiluminescent substrate on a Packard Lumincount Reader (Packard Instruments, Meridien, Conn.) with the PMT set at 1100V and read time 1 second per well.

Substance: cED47mer: 47-mer β-galactosidase enzyme donor peptide (SEQ ID NO:1) cyclized through its two cysteines with bis-maleimide cephem compound 3 (CSLAVVLQQRRDWENPGVTQLNRLAAHPPFASWRNSEEARTDCPSQQL; cyclized via cysteines with bis-maleimide cephem compound 3; …ON)
- EFC activity (FIG. 4) [1]: reduction of EFC activity
- chemiluminescence signal after cleavage with lactamase (FIG. 5) (TEM-1 lactamase): increased with concentration of E. coli TEM1 lactamase (picomole) in a dose dependent fashion

— patent US7537910B2, “Lactamase amplification substrate” (Discoverx Corp., priority 2005, dated 2009)
